According to patent US6737383B1, “Herbicidal oxadiazolidines” (priority 1999, dated 2004):

Legend:
bedstraw = assay: Test B pre/postemergence bedstraw; type: in vivo, Galium aparine
Method in brief: (§1)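 Response is a visual 0-to-10 score relative to untreated plants, where 0 means no effect and 10 means complete control, taken twelve to sixteen days after application. Treatments went onto soil at planting and onto foliage of 1- to 4-leaf plants, using a surfactant-containing non-phytotoxic solvent.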

blackgrass = assay: Test B pre/postemergence blackgrass; type: in vivo, Alopecurus myosuroides
Method in brief: as §1

surinam grass = assay: Test B pre/postemergence surinam grass; type: in vivo, Brachiaria decumbens
Method in brief: as §1

cocklebur = assay: Test B pre/postemergence cocklebur; type: in vivo, Xanthium strumarium
Method in brief: as §1

corn = assay: Test B pre/postemergence corn; type: in vivo, Zea mays
Method in brief: as §1

morningglory = assay: Test B pre/postemergence morningglory; type: in vivo, Ipomoea hederacea
Method in brief: as §1

pigweed = assay: Test B pre/postemergence pigweed; type: in vivo, Amaranthus retroflexus
Method in brief: as §1

rape = assay: Test B pre/postemergence rape; type: in vivo, Brassica napus
Method in brief: as §1

soybean = assay: Test B pre/postemergence soybean; type: in vivo, Glycine max
Method in brief: as §1

sugar beet = assay: Test B pre/postemergence sugar beet; type: in vivo, Beta vulgaris
Method in brief: as §1

velvetleaf = assay: Test B pre/postemergence velvetleaf; type: in vivo, Abutilon theophrasti
Method in brief: as §1

wild oat = assay: Test B pre/postemergence wild oat; type: in vivo, Avena fatua
Method in brief: as §1

purple nutsedge = assay: Test B pre/postemergence purple nutsedge; type: in vivo, Cyperus rotundus
Method in brief: as §1

rice = assay: Test B flood test rice; type: in vivo, Oryza sativa
Method in brief: (§2)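 Plants were grown to the 2-leaf stage before treatment with test chemical, then held in a greenhouse for twelve to sixteen days. Injury was visually rated against untreated controls on a 0–10 scale, where 0 is no effect and 10 is complete control.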

smallflower flatsedge = assay: Test B flood test smallflower flatsedge; type: in vivo, Cyperus difformis
Method in brief: as §2

bamyardgrass = assay: Test B flood test barnyardgrass; type: in vivo, Echinochloa crus-galli
Method in brief: as §2

[1] = Preemergence, Rate 62 g/ha, scale of 0 to 10 where 0 is no effect and 10 is complete control
[2] = Preemergence, Rate 250 g/ha, scale of 0 to 10 where 0 is no effect and 10 is complete control
[3] = Preemergence, Rate 500 g/ha, scale of 0 to 10 where 0 is no effect and 10 is complete control
[4] = Rate 125 g/ha, Postemergence, scale of 0 to 10 where 0 is no effect and 10 is complete control
[5] = Rate 125 g/ha, Preemergence, scale of 0 to 10 where 0 is no effect and 10 is complete control
[6] = Rate 250 g/ha, Postemergence, scale of 0 to 10 where 0 is no effect and 10 is complete control
[7] = Rate 500 g/ha, Postemergence, scale 0 to 10, 0 no effect, 10 complete control
[8] = Rate 62 g/ha, Postemergence, scale of 0 to 10 where 0 is no effect and 10 is complete control
[9] = Rate 62 g/ha, headed Pre-emergence (flood test species), scale 0 to 10 (0 no effect, 10 complete control)
[10] = Rate 125 g/ha, Pre-emergence, flood test species, scale 0 to 10 where 0 is no effect and 10 is complete control
[11] = Rate 250 g/ha, Pre-emergence, flood-test species, scale 0 to 10, 0 is no effect, 10 is complete control
[12] = Rate 500 g/ha, Pre-emergence, flood test species, scale 0 to 10 (0 no effect, 10 complete control)

For `Cc1ccccc1-n1c(=O)on(C(=O)N(c2cccc(F)c2)C(C)C)c1=O` [Compound 269], the “Bedstraw plant response rating” value (bedstraw; [1]) was 0, the “Bedstraw plant response rating” value (bedstraw; [2]) was 0 and the “Plant response rating, Bedstraw” value (bedstraw; [3]) was 0. For the same compound, the “Bedstraw plant response rating” value (bedstraw; [4]) was 4, the “Bedstraw plant response rating” value (bedstraw; [5]) was 0 and the “Plant response rating, Bedstraw” value (bedstraw; [6]) was 4. For the same compound, the “Bedstraw plant response rating” value (bedstraw; [7]) was 7, the “Blackgrass plant response rating” value (blackgrass; [1]) was 0 and the “Blackgrass plant response rating” value (blackgrass; [2]) was 3. For the same compound, the “Plant response rating, Blackgrass” value (blackgrass; [3]) was 7, the “Blackgrass plant response rating” value (blackgrass; [8]) was 0 and the “Blackgrass plant response rating” value (blackgrass; [4]) was 0. The “Blackgrass plant response rating” value (blackgrass; [5]) was 2, the “Plant response rating, Blackgrass” value (blackgrass; [6]) was 2 and the “Blackgrass plant response rating” value (blackgrass; [7]) was 5. For the same compound, the “B. signalgrass plant response rating” value (surinam grass; [1]) was 0, the “B. signalgrass plant response rating” value (surinam grass; [2]) was 6 and the “Plant response rating, B. signalgrass” value (surinam grass; [3]) was 7. The “B. signalgrass plant response rating” value (surinam grass; [8]) was 0, the “B. signalgrass plant response rating” value (surinam grass; [4]) was 0 and the “B. signalgrass plant response rating” value (surinam grass; [5]) was 6. For the same compound, the “Plant response rating, B. signalgrass” value (surinam grass; [6]) was 0, the “B. signalgrass plant response rating” value (surinam grass; [7]) was 0 and the “Cocklebur plant response rating” value (cocklebur; [1]) was 0. For the same compound, the “Cocklebur plant response rating” value (cocklebur; [2]) was 0, the “Plant response rating, Cocklebur” value (cocklebur; [3]) was 0 and the “Cocklebur plant response rating” value (cocklebur; [8]) was 0. For the same compound, the “Plant response rating, Cocklebur” value (cocklebur; [6]) was 1, the “Cocklebur plant response rating” value (cocklebur; [7]) was 2 and the “Corn plant response rating” value (corn; [1]) was 0. For the same compound, the “Corn plant response rating” value (corn; [2]) was 0, the “Plant response rating, Corn” value (corn; [3]) was 0 and the “Corn plant response rating” value (corn; [8]) was 0. The “Corn plant response rating” value (corn; [4]) was 0, the “Corn plant response rating” value (corn; [5]) was 0 and the “Plant response rating, Corn” value (corn; [6]) was 0. The “Corn plant response rating” value (corn; [7]) was 0, the “Morningglory plant response rating” value (morningglory; [1]) was 0 and the “Morningglory plant response rating” value (morningglory; [2]) was 0. The “Plant response rating, Morningglory” value (morningglory; [3]) was 0, the “Morningglory plant response rating” value (morningglory; [4]) was 3 and the “Morningglory plant response rating” value (morningglory; [5]) was 0. For the same compound, the “Plant response rating, Morningglory” value (morningglory; [6]) was 5, the “Morningglory plant response rating” value (morningglory; [7]) was 7 and the “Redroot pigweed plant response rating” value (pigweed; [1]) was 0. The “Redroot pigweed plant response rating” value (pigweed; [2]) was 4, the “Plant response rating, Redroot pigweed” value (pigweed; [3]) was 4 and the “Redroot pigweed plant response rating” value (pigweed; [4]) was 4. The “Redroot pigweed plant response rating” value (pigweed; [5]) was 0, the “Plant response rating, Redroot pigweed” value (pigweed; [6]) was 5 and the “Redroot pigweed plant response rating” value (pigweed; [7]) was 6. For the same compound, the “Rape plant response rating” value (rape; [1]) was 0, the “Rape plant response rating” value (rape; [2]) was 0 and the “Plant response rating, Rape” value (rape; [3]) was 0. The “Rape plant response rating” value (rape; [4]) was 0, the “Rape plant response rating” value (rape; [5]) was 0 and the “Plant response rating, Rape” value (rape; [6]) was 0. The “Rape plant response rating” value (rape; [7]) was 0, the “Soybean plant response rating” value (soybean; [1]) was 0 and the “Soybean plant response rating” value (soybean; [2]) was 0. For the same compound, the “Plant response rating, Soybean” value (soybean; [3]) was 4, the “Soybean plant response rating” value (soybean; [4]) was 1 and the “Soybean plant response rating” value (soybean; [5]) was 0. For the same compound, the “Plant response rating, Soybean” value (soybean; [6]) was 3, the “Soybean plant response rating” value (soybean; [7]) was 3 and the “Sugarbeets plant response rating” value (sugar beet; [1]) was 0. For the same compound, the “Sugarbeets plant response rating” value (sugar beet; [2]) was 0, the “Plant response rating, Sugarbeets” value (sugar beet; [3]) was 4 and the “Sugarbeets plant response rating” value (sugar beet; [4]) was 0. For the same compound, the “Sugarbeets plant response rating” value (sugar beet; [5]) was 0, the “Plant response rating, Sugarbeets” value (sugar beet; [6]) was 0 and the “Sugarbeets plant response rating” value (sugar beet; [7]) was 0. The “Velvetleaf plant response rating” value (velvetleaf; [1]) was 0, the “Velvetleaf plant response rating” value (velvetleaf; [2]) was 0 and the “Plant response rating, Velvetleaf” value (velvetleaf; [3]) was 0. The “Velvetleaf plant response rating” value (velvetleaf; [4]) was 0, the “Velvetleaf plant response rating” value (velvetleaf; [5]) was 0 and the “Plant response rating, Velvetleaf” value (velvetleaf; [6]) was 3. The “Velvetleaf plant response rating” value (velvetleaf; [7]) was 3, the “Wild oats plant response rating” value (wild oat; [1]) was 0 and the “Wild oats plant response rating” value (wild oat; [2]) was 2. For the same compound, the “Plant response rating, Wild oats” value (wild oat; [3]) was 4, the “Wild oats plant response rating” value (wild oat; [4]) was 0 and the “Plant response rating, Wild oats” value (wild oat; [6]) was 0. For the same compound, the “Wild oats plant response rating” value (wild oat; [7]) was 3, the “Nutsedge plant response rating” value (purple nutsedge; [1]) was 0 and the “Nutsedge plant response rating” value (purple nutsedge; [4]) was 0. The “Nutsedge plant response rating” value (purple nutsedge; [5]) was 0, the “Plant response rating, Nutsedge” value (purple nutsedge; [6]) was 0 and the “Nutsedge plant response rating” value (purple nutsedge; [7]) was 0. The “Rice plant response rating” value (rice; [9]) was 0, the “Rice plant response rating” value (rice; [10]) was 0 and the “Rice plant response rating” value (rice; [11]) was 0. The “Rice plant response rating” value (rice; [12]) was 0, the “S. Flatsedge plant response rating” value (smallflower flatsedge; [9]) was 0 and the “S. Flatsedge plant response rating” value (smallflower flatsedge; [10]) was 0. The “S. Flatsedge plant response rating” value (smallflower flatsedge; [11]) was 0, the “S. Flatsedge plant response rating” value (smallflower flatsedge; [12]) was 0 and the “Barnyardgrass plant response rating” value (bamyardgrass; [9]) was 0. The “Barnyardgrass plant response rating” value (bamyardgrass; [10]) was 0, the “Barnyardgrass plant response rating” value (bamyardgrass; [11]) was 0 and the “Barnyardgrass plant response rating” value (bamyardgrass; [12]) was 0.
